Test results published in ChEMBL document CHEMBL1201862, “PubChem BioAssay data set” (2004).
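96-well plates; 48 h exposure; 5 concentrations. Endpoints by linear interpolation between flanking doses. Not reached: highest tested concentration assigned. GI50 = concentration required for 50% inhibition of growth.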 Active and inactive are the calls of the source. Rule as the data show it: active = GI50 up to about 1.1 µM and inactive = higher.

Experiments:
Test in all cases: NCI tumour cell line growth inhibition, 48 h
DLD-1 = system: DLD-1
DMS-114 = system: DMS-114
DMS-273 = system: DMS-273
HOP-18 = system: HOP-18
KM-20L2 = system: KM-20L2
LXFL 529 = system: LXFL 529
M19-MEL = system: M19-MEL
RXF 631 = system: RXF 631
XF498 = system: XF498

Row | Structure (SMILES) | GI50 (DLD-1) | GI50 (DMS-114) | GI50 (DMS-273) | GI50 (HOP-18) | GI50 (KM-20L2) | GI50 (LXFL 529) | GI50 (M19-MEL) | GI50 (RXF 631) | GI50 (XF498)
1 | COC(=O)c1c/c(=N\NC(=O)CC(=O)Nc2ccccc2OC)c2ccccc2o1 | > 100 µM (inactive) | > 100 µM (inactive) | > 100 µM (inactive) | 15.2 µM (inactive) | > 100 µM (inactive) | > 100 µM (inactive) | > 100 µM (inactive) | – | –
2 | COC(=O)C1C(=O)N(CCc2c[nH]c3ccccc23)C[C@@H]2CCC(=O)C[C@H]12 (some centres not stated) | > 100 µM (inactive) | > 100 µM (inactive) | > 100 µM (inactive) | – | – | > 100 µM (inactive) | > 100 µM (inactive) | > 100 µM (inactive) | > 100 µM (inactive)
3 | O=S(=O)(O)SC/C=C\CSS(=O)(=O)O | > 100 µM (inactive) | 42.7 µM (inactive) | 69.5 µM (inactive) | > 100 µM (inactive) | > 100 µM (inactive) | > 100 µM (inactive) | 98.9 µM (inactive) | 37.5 µM (inactive) | > 100 µM (inactive)
4 | N#CC(C(=O)CCC(=O)C(C#N)c1ccccc1)c1ccccc1 (configuration not stated) | > 100 µM (inactive) | > 100 µM (inactive) | > 100 µM (inactive) | > 100 µM (inactive) | – | > 100 µM (inactive) | > 100 µM (inactive) | – | > 100 µM (inactive)
5 | Cc1cc(O)nc(NN2C(Cl)C(=O)C2c2ccccc2O)n1 (configuration not stated) | – | 1.32 µM (inactive) | 1.96 µM (inactive) | 1.6 µM (inactive) | 10.7 µM (inactive) | 2.62 µM (inactive) | 3.84 µM (inactive) | – | –
6 | N=C(N)n1ncc(Cl)c(Cl)c1=O | 2.38 µM (inactive) | 1.85 µM (inactive) | 2.28 µM (inactive) | 1.38 µM (inactive) | 4.33 µM (inactive) | 1.8 µM (inactive) | 1.69 µM (inactive) | 1.81 µM (inactive) | 1.81 µM (inactive)
7 | N#Cc1ccc(OCCSCCCCCCCCCCSCCOc2ccc(C#N)cc2)cc1 | – | 1.29 µM (inactive) | – | > 100 µM (inactive) | > 100 µM (inactive) | > 100 µM (inactive) | > 100 µM (inactive) | – | –
8 | CCOC(=O)CCC(NC(=O)c1ccc(/N=C/c2nc3cc(C(F)(F)F)ccc3nc2-c2ccccc2)cc1)C(=O)OCC (configuration not stated) | > 50 µM (inactive) | 34.3 µM (inactive) | > 100 µM (inactive) | > 100 µM (inactive) | > 50 µM (inactive) | 43.1 µM (inactive) | > 50 µM (inactive) | – | 2.81 µM (inactive)
9 | NC(=O)c1c2c(cc3c(=O)c4ccccc4[nH]c13)CCCC2 | > 73.1 µM (inactive) | > 100 µM (inactive) | > 100 µM (inactive) | > 100 µM (inactive) | > 100 µM (inactive) | > 100 µM (inactive) | > 100 µM (inactive) | > 100 µM (inactive) | > 100 µM (inactive)
10 | CC1CC[C@]2(C(=O)O)CCC3(COC(=O)/C=C\c4ccc(O)cc4)C(=CCC4[C@@]5(C)CC[C@H](O)C(C)(C)C5CC[C@]43C)[C@@H]2[C@H]1C (some centres not stated) | 10.8 µM (inactive) | 25.7 µM (inactive) | 20.3 µM (inactive) | 27.5 µM (inactive) | 18.4 µM (inactive) | 22.7 µM (inactive) | 21.7 µM (inactive) | 24.4 µM (inactive) | –
11 | C/C(=N\N=C(/[SeH])N1CC2CCC(CC2)C1)c1ccccn1 | < 0.01 µM (active) | < 0.01 µM (active) | 0.0136 µM (active) | 0.294 µM (active) | < 0.01 µM (active) | < 0.01 µM (active) | 0.0449 µM (active) | 0.4 µM (active) | < 0.01 µM (active)
12 | CCOC(=O)C(C)(C)Oc1ccc2c(=O)cc(-c3ccccc3)oc2c1 | – | 17.9 µM (inactive) | – | 22.8 µM (inactive) | 24.2 µM (inactive) | 19 µM (inactive) | 20.7 µM (inactive) | – | –
13 | CCOC(=O)C1N(S(=O)(=O)c2ccc(C)cc2)CCC12c1ccccc1N(C(C)=O)C2C(/C=C/C(=O)OC)=C/C(=O)OC (configuration not stated) | > 100 µM (inactive) | > 100 µM (inactive) | 89.9 µM (inactive) | – | > 100 µM (inactive) | > 100 µM (inactive) | > 100 µM (inactive) | – | > 100 µM (inactive)
14 | COC(=O)C(Cc1nc2ccccc2nc1O)C(NO)C(=O)Nc1c(Cl)cc([N+](=O)[O-])cc1Cl (configuration not stated) | 28.9 µM (inactive) | 21.2 µM (inactive) | – | – | – | – | – | – | –
15 | CN(C)CCNc1ccc2ncn3c4ccccc4c(=O)c1c23 | 1.96 µM (inactive) | 2.02 µM (inactive) | – | 1.17 µM (inactive) | 2.13 µM (inactive) | 2.7 µM (inactive) | 2.96 µM (inactive) | – | –
16 | CN(C)C[C@H]1CC[C@@H](CN(C)C)C1=O | 3.94 µM (inactive) | 8.47 µM (inactive) | 8.71 µM (inactive) | 8.02 µM (inactive) | 11.2 µM (inactive) | 6.18 µM (inactive) | 8.83 µM (inactive) | – | 8.28 µM (inactive)
17 | Cc1cccc(C)c1NC(=O)CCC(=O)NNc1nnc(C)n1N | > 100 µM (inactive) | > 100 µM (inactive) | > 100 µM (inactive) | > 100 µM (inactive) | > 100 µM (inactive) | > 100 µM (inactive) | > 100 µM (inactive) | > 100 µM (inactive) | > 100 µM (inactive)
18 | C=CCO/N=C(\OC(=O)c1ccc([N+](=O)[O-])cc1)c1ccccc1 | > 100 µM (inactive) | > 100 µM (inactive) | > 100 µM (inactive) | > 100 µM (inactive) | – | > 100 µM (inactive) | > 100 µM (inactive) | > 100 µM (inactive) | –
19 | C/C(=N\Nc1ccc([N+](=O)[O-])cc1)C(=O)N(C)Nc1ccccc1 | > 100 µM (inactive) | 48 µM (inactive) | 69.8 µM (inactive) | > 100 µM (inactive) | 60.4 µM (inactive) | 52.6 µM (inactive) | 69.5 µM (inactive) | – | 63.1 µM (inactive)
20 | C[N+]1=C(c2cccnc2/C=N/O)OCC1(C)C | > 100 µM (inactive) | > 100 µM (inactive) | > 100 µM (inactive) | > 100 µM (inactive) | > 100 µM (inactive) | > 100 µM (inactive) | > 100 µM (inactive) | – | > 100 µM (inactive)
21 | CC12CCC[C@@](C)(C(=O)OC3OC(CO)C(O)C(O)C3O)[C@H]1CCC13CC4CC(OC4(CO)[C@H]1O)[C@@H]23 (some centres not stated) | > 100 µM (inactive) | 24.9 µM (inactive) | > 100 µM (inactive) | > 100 µM (inactive) | > 100 µM (inactive) | > 100 µM (inactive) | > 100 µM (inactive) | > 100 µM (inactive) | > 100 µM (inactive)
22 | NC(=S)N/N=C1\CCCC\C1=C/c1ccccc1 | 33.2 µM (inactive) | 37.3 µM (inactive) | 18.5 µM (inactive) | 38.2 µM (inactive) | > 100 µM (inactive) | 31.4 µM (inactive) | 81.1 µM (inactive) | 89.3 µM (inactive) | –
23 | NC(=O)c1ccc(Cl)c([N+](=O)[O-])c1 | > 100 µM (inactive) | > 100 µM (inactive) | > 100 µM (inactive) | > 100 µM (inactive) | > 100 µM (inactive) | > 100 µM (inactive) | > 100 µM (inactive) | – | > 100 µM (inactive)
24 | O=C(Nc1ccc(Cl)c(Cl)c1)C1C(=O)N(c2ccc(Cl)c(Cl)c2)C(=O)/C1=N\O (configuration not stated) | > 100 µM (inactive) | 30.3 µM (inactive) | > 100 µM (inactive) | > 100 µM (inactive) | 43.5 µM (inactive) | > 100 µM (inactive) | 31.8 µM (inactive) | – | –
25 | CC1(C)CC(=O)C(=[N+]=[N-])C(=O)C1 | > 100 µM (inactive) | > 100 µM (inactive) | – | – | > 100 µM (inactive) | > 100 µM (inactive) | – | – | > 100 µM (inactive)
26 | CC(=O)NC1=C(NCCC(C)C)C(=O)c2ccccc2C1=O | > 50 µM (inactive) | – | > 50 µM (inactive) | – | > 50 µM (inactive) | > 50 µM (inactive) | > 50 µM (inactive) | – | > 50 µM (inactive)
